Assay results as given in ChEMBL document CHEMBL1143527, “Design, synthesis, and activity of achiral analogs of 2-quinolones and indoles as non-thiol farnesyltransferase inhibitors” (Bioorg Med Chem Lett, 2005).

What was measured:
[1] = target: T1, Protein farnesyltransferase (Bos taurus, UniProt P29702+P49355); experiment: Inhibition of bovine farnesyltransferase; format: protein-complex assay
[2] = target: Protein farnesyltransferase (Mus musculus, UniProt Q61239+Q8K2I1); experiment: Inhibition of H-ras processing in transformed NIH3T3 cells; format: functional, cell-based
[3] = target: T2, Geranylgeranyl transferase type I (Bos taurus, UniProt P29702+Q5EAD5); experiment: Inhibition of bovine geranylgeranyl transferase; format: protein-complex assay
[4] = target: T3, Protein farnesyltransferase (Mus musculus) (UniProt Q61239+Q8K2I1); experiment: (§1) Percent inhibition of H-ras processing in transformed NIH3T3 cells at 100 nM; format: functional, cell-based
[5] = target: T3, Protein farnesyltransferase (Mus musculus); experiment: as §1; format: functional, cell-based; remark: listed apart in the source
[6] = target: T1, Protein farnesyltransferase; experiment: Inhibition of bovine Farnesyltransferase; format: protein-complex assay
[7] = target: T2, Geranylgeranyl transferase type I; experiment: Inhibition of bovine Geranylgeranyltransferase; format: protein-complex assay
[8] = target: T3, Protein farnesyltransferase (Mus musculus); experiment: Percent inhibition of H-ras processing in transformed NIH3T3 cells at 1000 nM; format: functional, cell-based

| Compound | IC50 [1] | IC50 [3] | inhibition [4] | further results |
| --- | --- | --- | --- | --- |
| N#Cc1ccc(Cn2cncc2Cn2ccc3cc(-c4cccc5ccccc45)ccc32)cc1 | 0.93 nM | 0.27 µM | – | EC50 [2]: 5.7 nM |
| Cn1c(=O)cc(-c2cccc(Cl)c2)c2cc(Cn3cncc3C(O)c3ccc(C#N)cc3)ccc21 (configuration not stated) | 44 nM | > 10 µM | – | – |
| Cn1c(=O)cc(-c2cccc(Cl)c2)c2cc(Cn3cncc3COc3ccc(C#N)cc3)ccc21 | > 1000 nM | – | – | – |
| Cn1c(=O)cc(-c2cccc(Cl)c2)c2cc(Cn3cncc3Cc3ccc(C#N)cc3)cnc21 | 10 nM | 4 µM | 39% | – |
| N#Cc1ccc(Cn2cncc2Cn2ccc3c(C#N)c(-c4cccc5ccccc45)ccc32)cc1 | 0.15 nM | 0.11 µM | – | EC50 [2]: 2.1 nM |
| Cn1c(=O)cc(-c2cccc(Cl)c2)c2cc(Cn3cncc3Cc3ccc(C#N)cc3)ccc21 | 7.2 nM | > 10 µM | 57% | inhibition [5]: 57%; IC50 [6]: 4.7 nM; IC50 [7]: 17 µM |
| Cn1c(=O)cc(-c2cccc(Cl)c2)c2cc(Cn3cncc3COCc3ccc(C#N)cc3)ccc21 | > 1000 nM | – | – | – |
| N#Cc1ccc(Cn2cncc2Cn2cc(C#N)c(-c3cccc4ccccc34)c2)cc1 | 0.58 nM | 0.14 µM | – | EC50 [2]: 34 nM |
| Cn1cncc1[C@@](N)(c1ccc(Cl)cc1)c1ccc2c(c1)c(-c1cccc(Cl)c1)cc(=O)n2C | – | – | 1.6% | – |
| Cn1c(=O)cc(-c2cccc(Cl)c2)c2cc(C(O)c3cncn3Cc3ccc(C#N)cc3)ccc21 (configuration not stated) | 4.7 nM | 17 µM | 32% | – |
| Cn1c(=O)cc(-c2cccc(Cl)c2)c2cc(C(N)c3cncn3Cc3ccc(C#N)cc3)ccc21 (configuration not stated) | 3.8 nM | 22 µM | 42% | – |
| Cn1c(=O)cc(-c2cccc(Cl)c2)c2cc(COCc3cncn3Cc3ccc(C#N)cc3)ccc21 | 89 nM | – | – | – |
| Cn1c(=O)cc(-c2cccc(Cl)c2)c2cc(Cn3cncc3Cn3ccc(=O)cc3)ccc21 | > 1000 nM | – | – | – |
| Cn1c(=O)cc(-c2cccc(Cl)c2)c2cc(C(=O)c3cncn3Cc3ccc(C#N)cc3)ccc21 | 29 nM | < 10 µM | 30% | – |
| Cn1c(=O)cc(-c2cccc(Cl)c2)c2cc(Cn3cncc3Cn3ccc(C#N)c3)ccc21 | 560 nM | – | – | – |
| Cn1c(=O)cc(-c2cccc(Cl)c2)c2cc(Cn3cncc3Cn3ccc(C(=O)N4CCOCC4)c3)ccc21 | > 1000 nM | – | – | – |
| Cn1cncc1C(OCc1ccc2c(c1)c(-c1cccc(Cl)c1)cc(=O)n2C)c1ccc(C#N)cc1 (configuration not stated) | 80 nM | – | – | – |
| NC(=O)N1CCC(CC(=O)N2CCC([C@H]3c4ncc(Br)cc4CCc4cc(Cl)cc(Br)c43)CC2)CC1 [LONAFARNIB] | – | > 10 µM | 100% | – |
| Cn1c(=O)cc(-c2cccc(Cl)c2)c2cc(C(NC=O)c3cncn3Cc3ccc(C#N)cc3)ccc21 (configuration not stated) | 2.1 nM | > 10 µM | 28% | – |
| CC(=O)OC(c1ccc(C#N)cc1)c1cncn1Cc1ccc2c(c1)c(-c1cccc(Cl)c1)cc(=O)n2C (configuration not stated) | > 1000 nM | > 1 µM | – | – |
| N#Cc1cn(Cc2cncn2Cc2ccc3c(c2)OCO3)cc1-c1cccc2ccccc12 | 6.1 nM | 0.52 µM | – | inhibition [8]: 68% |
